Experimental findings from patent US3993650A, “Pyrrolo [3,4-d] pyrimidines” (Gruppo Lepetit S.p.A., priority 1975, dated 1976) are described below.

Each structure is given as a SMILES string.

In this test the test system is carragenin induced edema. Put plainly: carragenin induced edema test in rats (antiinflammatory activity). It counts as in vivo. The note with it: per os; for decrease of the induced edema: 100 mg/kg; for decrease of the induced edema over the controls: dose levels ranging from about 20 to about 50 mg/kg. As for the experimental part: The compounds of the invention display excellent pharmacological properties; more particularly they are active essentially as antiinflammatories and as prostaglandin synthetase inhibitors. The antiinflammatory activity was investigated through the "carragenin induced edema" test in rats, which was performed following substantially the operative schema proposed by C.A. Winter et al. in Proc. Soc. Expl. Biol. Med., 111, 544, 1962.
It must be noted that a percent decrease of the edema of 30 is absolutely significative from the pharmacological standpoint. Moreover when administered per os at 100 mg/kg the compounds of examples 3 and 7 caused a decrease of the induced edema of about 55%. These very favorable antiinflammatory properties are coupled with a low toxicity, being the LD50 of the compounds of the invention always higher than 500 mg/kg p.o. in mice. Toxicities were determined substantially according to the method described by Lichtfield and Wilcoxon in Journ. Pharm. Expt. Ther., 96, 99 1949.

`CCn1c(-c2ccccc2)c2c(C)nc(-c3ccccc3)c-2[nH]c1=O.Cl` [Example 3, 3-Ethyl-5-methyl-4,7-diphenyl-1H-pyrrolo[3,4-d]pyrimidine-2(3H)-one hydrochloride]: the “decrease of the induced edema” value is listed as “about 55%” and the “decrease of the induced edema over the controls” value (“decrease … over the controls” below) is “at least 30%”.

With `CCn1c(-c2ccccc2)c2[nH]c(=O)nc(-c3ccccc3)c2c1C` [Example 6, 6-Ethyl-5-methyl-4,7-diphenyl-6H-pyrrolo[3,4-d]pyrimidine-2(1H)-one], the “decrease … over the controls” value is on record as “at least 30%”.

`CCn1c(C)c2c(-c3ccccc3)nc(=O)n(CC)c2c1-c1ccccc1` [Example 7, 1,6-Diethyl-5-methyl-4,7-diphenyl-6H-pyrrolo[3,4-d]pyrimidine-2(1H)-one]: the “decrease of the induced edema” value is given as “about 55%” and the “decrease … over the controls” value is “at least 30%”.
